The numbers were not newly measured in paper PMC3483082 (Chembiochem : a European journal of chemical biology, 2012), which cites them from elsewhere.

In one series the test system is CDK1. The note with it: read-out: IC50 CDK1.
The subject of a further series is CDK2. The note with it: read-out: IC50 (CDK2 inhibitor).

In the case of `CCN(CC)CCNC(=O)c1c(C)[nH]c(/C=C2\C(=O)Nc3ccc(F)cc32)c1C` [Hit 1, sunitinib], the half-inhibitory concentration (IC50) in the series with CDK1 is 2600 nM.

With `COc1ccc2c(c1)/C(=C/c1cnc[nH]1)C(=O)N2` [SU9516], in the series with CDK2, the IC50 is […].

The IC50 is the concentration at which inhibition is half-maximal.
